Laboratory results reported in patent publication US20250057864A1, “COMPOSITION FOR IMPROVING EXERCISE PERFORMANCE COMPRISING GYPENOSIDE COMPOUND AS ACTIVE INGREDIENT” (BTC CORPORATION, priority 2022, published 2025).

Legend:
[1] = system: PGC1α, AMPK, p38, Nrf2 in gastrocnemius muscle (GA); assay: Western blot of proteins associated with PGC-1α activation in gastrocnemius muscle (GA); type: in vivo, ICR mice
[2] = system: TFam, CPT1-β, mtDNA in C2C12 cells; assay: mRNA expression related with mitochondrial replication in C2C12 cells (real-time RT-PCR); type: cell-based, mice; details: C2C12, 0.36 μg/mL (Cr 5 μg/mL), control G1 = 1.00
Experimental: (§1) C2C12 cells were dispensed into a 6-well plate at 2×10^5 cells/well and stabilized for 24 hours. In order to investigate the effect of each test substance on muscle cell differentiation, each test substance was added to the myocyte differentiation medium. The cells were cultured for 4 days (mRNA analysis) or 7 days (protein analysis) after exchanging the cell culture medium with the myocyte differentiation medium treated with each test substance, as shown in Table 2.
C2C12 cells were dispensed into a 6-well plate at 2×10^5 cells/well and stabilized for 24 hours. The cells were cultured for 2 or 4 days after replacing the cell culture with a myocyte differentiation medium containing the test substance. After collecting the cells, total RNA was isolated using an RNeasy Plus Mini kit (QIAGEN), and quantified using a micro-volume spectrophotometer (BioSpec-nano, Shimadzu). RNAs with an OD260/280 value greater than 1.8 were used for experiment.
After obtaining cDNA from the total RNA (2 μg) using a HyperScript™ RT master mix kit (GeneAll Biotechnology), real-time PCR was performed using a Rotor-Gene 300 PCR kit (Corbett Research) and a Rotor-Gene™ SYBR Green kit (QIAGEN). Quantitative analysis of the gene expression was performed using the Rotor-Gene 6000 Series System Software program (Corbett Research).
The effect of the treatment of C2C12 cells with the test substances on the mRNA expression of mtDNA, Tfam and CPT-1β associated with mitochondrial replication was investigated.

[3] = system: gastrocnemius muscle (GA); assay: Glycogen content in muscle (gastrocnemius muscle, GA); type: in vivo, ICR mice; details: 6 weeks
Experimental: After an acclimatization period of 1 week, healthy animals were selected and divided into 6 groups according to the randomized block design. The animals were divided into (G1) a non-exercise control group, (G2) a non-exercise+7 mg/kg body weight (BW) Example 1 group, (G3) a non-exercise+7 mg/kg BW Example 2 group, (G4) a non-exercise+7 mg/kg BW Example 3 group, (G5) a non-exercise+7 mg/kg BW Example 4 group, (G6) an exercise control group, (G7) an exercise+7 mg/kg BW Example 1 group, (G8) an exercise+7 mg/kg BW Example 2 group, (G9) an exercise+7 mg/kg BW Example 3 group, (G10) an exercise+7 mg/kg BW Example 4 group, and (G11) an exercise+75 mg/kg BW Cr dose group. Each test group consisted of 10 animals.
A muscle tissue fluid was prepared to measure glycogen content and enzymatic activity in the muscle tissue. 1 mL of PBS was added to the extracted quadriceps femoris muscle (QF), gastrocnemius muscle (GA), soleus muscle (SOL) and extensor digitorum longus muscle (EDL), and the skeletal muscles were homogenized with a homogenizer. The homogenized solution was centrifuged at 5,000 rpm for 10 minutes and then used as a muscle tissue fluid. The amount of proteins in the muscle tissue was measured using a BCA protein assay kit (Thermo Scientific).
The glycogen content in the liver and skeletal muscle (GA) was measured using a glycogen assay kit according to the method presented by the manufacturer (Abcam).
Accordingly, the glycogen content in the muscle (GA) collected at the end of the test was measured.

[4] = system: p-AMPK, p-Sirt1, p-p38, p-Nrf2 in C2C12 cells; assay: Western blot of proteins related with PGC-1α activation in C2C12 cells; type: cell-based, mice; details: C2C12, 0.36 μg/mL (Cr 5 μg/mL); for Protein expression level p-AMPK / Protein expression level p-Nrf2 / Protein expression level p-Sirt1 / Protein expression level p-p38: 7 days; for p-AMPK/AMPK ratio / p-Nrf2/Nrf2 ratio / p-Sirt1/Sirt1 ratio / p-p38/p38 ratio: control G1 = 1.00
Experimental: as §1
C2C12 cells were dispensed into a 6-well plate at 2×10^5 cells/well and stabilized for 24 hours. The cells were cultured for 7 days after exchanging the culture medium with a myocyte differentiation medium containing the test substance. After the induction of differentiation for 7 days, the cells were homogenized by adding a lysis buffer (20 mmol/L HEPES, pH 7.5, 150 mmol/L NaCl, 1% Triton X-100, 1 mmol/L EDTA, 1 mmol/L EGTA, 100 mmol/L NaF, 10 mmol/L sodium pyrophosphate, 1 mmol/L Na3VO4, 20 μg/mL aprotinin, 10 μg/mL antipain, 10 μg/mL leupeptin, 80 μg/mL benzamidine HCl, 0.2 mmol/L PMSF) and a total cell lysate was obtained through centrifugation. The protein quantity of the total cell lysate was measured using a BCA protein assay kit (Thermo Scientific). The total cell lysate (50 μg) was separated by 10% sodium dodecyl sulfate polyacrylamide gel electrophoresis (SDS-PAGE) and then transferred to a polyvinylidene difluoride membrane (Milipore). The membrane was blocked for 1 hour in 5% skim milk-TBST (20 mmol/L Tris·HCl, pH 7.5, 150 mmol/L NaCl, 0.1% Tween 20) and then incubated for 16 hours at 4° C. or for 1 hour at room temperature after adding antibodies. Thereafter, horseradish peroxidase (HRP)-linked anti-rabbit IgG or HRP-linked anti-mouse IgG was added and the mixture was stirred for 1 hour. The detected protein bands were visualized by enhanced chemiluminescence using a Luminata™ Forte Western HRP substrate (Millipore). The level of protein expression was quantified using the ImageQuant™ LAS 500 imaging system (GE Healthcare Bio-Sciences AB).
The result of western blot analysis conducted using the total cell lysate obtained by treating with the test substance to investigate the effect of the test substance on the changes in proteins associated with PGC-1α activation is shown in Table 6.
Based on the western blot analysis result, the activity of each protein was evaluated from the ratio of activation.

ICR mice = assay: Blood biochemistry (serum analysis) at end of test; type: in vivo
Experimental: After an acclimatization period of 1 week, healthy animals were selected and divided into 6 groups according to the randomized block design. […] Each test group consisted of 10 animals.
Before sacrificing, the experimental animal was anesthetized using an anesthetic prepared by dilution of tribromoethanol with tertiary amyl alcohol and blood was taken from the eye socket. The blood was placed in a serum-separating tube (Becton Dickinson) and left at room temperature for 30 minutes, centrifuged at 5,000 rpm for 10 minutes to separate the serum, and kept at −70° C. until analysis.
The contents of glucose, triglycerides (TG), total cholesterol (CHOL), LDL-cholesterol (LDL-CHOL), HDL-cholesterol (HDL-CHOL), blood urea nitrogen (BUN) and creatinine (CREA) in the serum, and the activities of creatine kinase (CK), lactate dehydrogenase (LDH), alanine aminotransferase (ALT), aspartate aminotransferase (AST) and alkaline phosphatase (ALP) were measured using a blood biochemistry analyzer (KoneLab 20 XT, Thermo Fisher Scientific).

[5] = GA muscle, treadmill exercise, 7 mg/kg BW (Cr 75 mg/kg BW), G1 = 1.00
[6] = treadmill exercise, 7 mg/kg BW (Cr 75 mg/kg BW)
[7] = serum, treadmill exercise, 7 mg/kg BW (Cr 75 mg/kg BW), 6 weeks
[8] = GA muscle, non-exercise, 7 mg/kg BW, G1 = 1.00
[9] = serum, non-exercise, 7 mg/kg BW, 6 weeks

SMILES: CN(CC(=O)O)C(=N)N.O [Cr, Creatine monohydrate, reference compound]
- p-AMPK/AMPK ratio [1, 5]: 1.43 ± 0.13
- p-Nrf2/Nrf2 ratio [1, 5]: 1.35 ± 0.17
- p-PGC1α/PGC1α ratio [1, 5]: 2.28 ± 0.84^++
- p-p38/p38 ratio [1, 5]: 1.94 ± 0.16^+
- mRNA expression CPT1-β [2]: 0.93 ± 0.20
- mRNA expression Tfam [2]: 0.48 ± 0.07
- Glycogen content in 1 mg of GA [3, 6]: 3.32 ± 0.21^+ μg/mg GA
- Total glycogen content in GA [3, 6]: 1350.5 ± 73.7^+ μg/GA
- Protein expression level p-AMPK [4]: 104.6 ± 14.4 % of control group
- Protein expression level p-Nrf2 [4]: 116.2 ± 11.4 % of control group
- Protein expression level p-Sirt1 [4]: 114.0 ± 11.1 % of control group
- Protein expression level p-p38 [4]: 151.5 ± 41.0 % of control group
- p-AMPK/AMPK ratio [4]: 1.09 ± 0.13
- p-Nrf2/Nrf2 ratio [4]: 1.20 ± 0.26
- p-Sirt1/Sirt1 ratio [4]: 1.11 ± 0.10
- p-p38/p38 ratio [4]: 1.15 ± 0.29
- BUN (ICR mice; [7]): 7.84 ± 0.47 mg/dL
- CK (ICR mice; [7]): 521.5 U/L
- CREA (ICR mice; [7]): 0.363 mg/dL
- LDH (ICR mice; [7]): 1,169 U/L
- Lactate (ICR mice; [7]): 5.30 ± 0.41^++ μmol/L

SMILES: CC(C)=CCC[C@](C)(O)C1CC[C@]2(C)C1[C@H](O)CC1[C@@]3(C)C[C@@H](O)C(OC4OC(CO)C(O)C(O)C4OC4OC(CO)C(O)C(O)C4O)C(C)(C)C3CC[C@]12C (some centres unmarked) [Example 1, Gypenoside L]
- p-AMPK/AMPK ratio ([1]; 7 mg/kg): 1.41 ± 0.14
- p-Nrf2/Nrf2 ratio ([1]; 7 mg/kg): 1.30 ± 0.16
- p-PGC1α/PGC1α ratio ([1]; 7 mg/kg): 1.98 ± 0.34^+
- p-p38/p38 ratio ([1]; 7 mg/kg): 1.86 ± 0.13^+
- p-AMPK/AMPK ratio [1, 8]: 1.22 ± 0.09
- p-Nrf2/Nrf2 ratio [1, 8]: 1.02 ± 0.06
- p-PGC1α/PGC1α ratio [1, 8]: 1.14 ± 0.07
- p-p38/p38 ratio [1, 8]: 1.71 ± 0.16
- mRNA expression CPT1-β [2]: 1.83 ± 0.41
- mRNA expression Tfam [2]: 0.91 ± 0.10
- mRNA expression mtDNA [2]: 1.29 ± 0.41
- Glycogen content in 1 mg of GA ([3]; non-exercise, 7 mg/kg BW): 3.56 ± 0.15 μg/mg GA
- Total glycogen content in GA ([3]; non-exercise, 7 mg/kg BW): 1442.1 ± 76.2 μg/GA
- Glycogen content in 1 mg of GA [3, 6]: 3.38 ± 0.12^+ μg/mg GA
- Total glycogen content in GA [3, 6]: 1404.4 ± 83.3^+ μg/GA
- Protein expression level p-AMPK [4]: 117.7 ± 7.2 % of control group
- Protein expression level p-Nrf2 [4]: 135.1 ± 1.6 % of control group
- Protein expression level p-Sirt1 [4]: 143.4 ± 5.6 % of control group
- Protein expression level p-p38 [4]: 133.1 ± 7.1 % of control group
- p-AMPK/AMPK ratio [4]: 1.27 ± 0.25
- p-Nrf2/Nrf2 ratio [4]: 1.50 ± 0.11
- p-Sirt1/Sirt1 ratio [4]: 1.38 ± 0.06
- p-p38/p38 ratio [4]: 1.27 ± 0.07
- BUN (ICR mice; 7 mg/kg, 1008 h): 7.10 ± 0.40 mg/dL
- CK (ICR mice; 7 mg/kg, 1008 h): 471.7 U/L
- LDH (ICR mice; 7 mg/kg, 1008 h): 1,198 U/L
- BUN (ICR mice; [9]): 7.54 ± 0.47 mg/dL
- CK (ICR mice; [9]): 416.7 U/L
- CREA (ICR mice; [9]): 0.312 mg/dL
- LDH (ICR mice; [9]): 894 U/L
- Lactate (ICR mice; [9]): 5.15 ± 0.30 µmol/L
- CREA (ICR mice; [7]): 0.348 mg/dL
